Experiments:
Format in all cases: functional, cell-based
[1] = test system: PC-3; assay: Cytotoxicity against human PC3 cells after 48 hrs by MTT assay; settings: PC-3, 48 h
[2] = test system: DU-145; assay: Cytotoxicity against human DU145 cells after 48 hrs by MTT assay; settings: DU-145, 48 h
[3] = test system: LNCaP; assay: Cytotoxicity against human LNCAP cells after 48 hrs by MTT assay
[4] = test system: MCF7; assay: Cytotoxicity against human MCF7 cells after 48 hrs by MTT assay; settings: MCF7, 48 h
[5] = test system: MDA-MB-231; assay: Cytotoxicity against human MDA-MB-231 cells after 48 hrs by MTT assay; settings: MDA-MB-231, 48 h
[6] = test system: MIA PaCa-2; assay: Cytotoxicity against human MIAPaCa2 cells after 48 hrs by MTT assay; settings: MIA PaCa-2, 48 h

Row | SMILES | IC50 [1] [µM] | IC50 [2] [µM] | IC50 [3] [µM] | IC50 [4] [µM] | IC50 [5] [µM] | IC50 [6] [µM]
1 | COc1ccc(-c2nc(-c3ccc(OC)c(OC4CCCC4)c3)no2)cc1 | 408 | 414 | 843 | > 1000 | 77.7 | 420
2 | COc1ccc(-c2nc(-c3ccc(OC)c(OC4CCCC4)c3)no2)cc1OC | 171 | 422 | 816 | > 1000 | 236 | 404
3 | COc1ccc(-c2nc(-c3cc(OC)c(OC)c(OC)c3)no2)cc1 | 214 | 100 | 327 | > 1000 | 768 | 43.5
4 | COc1ccc(-c2nc(-c3cc(OC)c(OC)c(OC)c3)no2)cc1OC | > 1000 | > 1000 | > 1000 | > 1000 | 475 | > 1000
5 | COc1cc(-c2noc(-c3cc(OC)c(OC)c(OC)c3)n2)cc(OC)c1OC | 698 | 576 | 407 | > 1000 | 261 | > 1000
6 | COc1ccc(-c2noc(C3CCNCC3)n2)cc1OC | 315 | 108 | 38.8 | 27 | 122 | 147
7 | CCOc1cc(-c2noc(C3CCNCC3)n2)ccc1OC | 166 | 167 | 154 | 173 | 184 | 112
8 | CCCCOc1cc(-c2noc(C3CCNCC3)n2)ccc1OC | 35.8 | 17 | 32.5 | 15.7 | 23.8 | 18.5
9 | COc1cc(-c2noc(C3CCNCC3)n2)ccc1OC1CCCC1 | 11.7 | 30 | 42.2 | 29 | 28.5 | 13
10 | COc1cc(-c2noc(C3CCNCC3)n2)cc(OC)c1OC | 176 | 112 | 120 | 324 | 123 | 80.1
11 | CCOC(=O)N1CCC(c2nc(-c3ccc(OC)c(OC4CCCC4)c3)no2)CC1 | 80 | 29.3 | 58.7 | 27 | 36.8 | 24
12 | COc1ccc(-c2noc(C3CCN(S(C)(=O)=O)CC3)n2)cc1OC1CCCC1 | 159 | 134 | 149 | 113 | 109 | 144
13 | COc1ccc(-c2nnc(C3CCNCC3)o2)cc1OC1CCCC1 | > 1000 | 146 | 308 | 129 | 38.3 | 331
14 | COc1ccc(-c2nnc(C3CCNCC3)s2)cc1OC1CCCC1 | 12.9 | 19.6 | 19.2 | 17.6 | 9.2 | 10.2
15 | COc1ccc(-c2noc(C3CCCCC3)n2)cc1OC1CCCC1 | 80.3 | 108 | 92.6 | 57.3 | 138 | 64.5
16 | COc1ccc(-c2noc(C3CCCC3)n2)cc1OC1CCCC1 | 194 | 106 | 138 | 62.3 | 87.5 | 99.2
17 | COc1ccc(-c2noc(C3CCN(C(=O)OC(C)(C)C)CC3)n2)cc1OC | 108 | 158 | 85.6 | 52.2 | 129 | 32.5
18 | CCOc1cc(-c2noc(C3CCN(C(=O)OC(C)(C)C)CC3)n2)ccc1OC | 41 | 156 | 96.1 | 93.8 | 116 | 91.1
19 | CCCCOc1cc(-c2noc(C3CCN(C(=O)OC(C)(C)C)CC3)n2)ccc1OC | 130 | 102 | 91 | 91 | 88 | 105
20 | COc1cc(-c2noc(C3CCN(C(=O)OC(C)(C)C)CC3)n2)ccc1OC1CCCC1 | 315 | 98.6 | 106 | 38 | 41 | 21.5
21 | COc1cc(-c2noc(C3CCN(C(=O)OC(C)(C)C)CC3)n2)cc(OC)c1OC | 56.9 | 48.4 | 48.2 | 43.6 | 13.6 | 106
22 | COc1ccc(-c2noc(C3CCN(C(=O)OC(C)(C)C)CC3)n2)cc1OC1CCCC1 | 108 | 120 | 122 | 60.3 | 38.3 | 23.3
23 | COc1ccc(-c2noc(C(Cl)(Cl)Cl)n2)cc1OC1CCCC1 | 15 | 9.3 | 17.8 | 47.4 | 16.1 | 14.5
